# Source: patent US20060270862A1, “Analogs of discodermolide and dictyostatin-1, intermediates therefor and methods of synthesis thereof” (priority 2002, published 2006)
# Where two headings read alike, the source gives them in different places.
# What was measured:
# [1] = system: tubulin; type: biochemical, bovine; details: for MT stabilizing activity (%): tubulin assembly induced by test agent at 10 μM vs. 10 μM paclitaxel (100%), single determinations at 30° C.
# Procedure: (§1) General. Tubulin without microtubule-associated proteins was prepared from fresh bovine brains[32] The normoisotopic and tritiated forms of paclitaxel and normoisotopic docetaxel were provided by the Drug Synthesis and Chemistry Branch, National Cancer Institute. (+)-Discodermolide was from Novartis Pharmaceutical Corporation. Ca^2+- and Mg^2+-free RPMI-1640 culture medium were from GIBCO/BRL-Life Technologies. Fetal bovine serum (FBS) was from Hyclone. Cell lines were obtained from American Type Culture Collection (Manassas, Va.).
# Tubulin Polymerization[32] Tubulin assembly was followed in a Beckman-Coulter 7400 spectrophotometer, equipped with an electronic Peltier temperature controller, reading absorbance (turbidity) at 350 nm. Reaction mixtures (0.25 mL final volume) contained tubulin (final concentration 10 μM; 1 mg/mL), monosodium glutamate (0.8 M from a stock solution adjusted to pH 6.6 with HCl), DMSO (final volume 4% v/v), and differing concentrations of test agent where indicated. Reaction mixtures without test agent were cooled to 0° C. and added to cuvettes held at 0.25-0.5° C. in the spectrophotometer. Test agent in DMSO was then rapidly mixed in the reaction mixture. Each run contained one positive control (paclitaxel, 10 μM final concentration) and one negative control (DMSO only). Baselines were established at 0.25-2.5° C. and temperature was rapidly raised to 30° C. (in approximately 1 min) and held there for 20 min.
# [2] = system: MDA-MB231 (breast); assay: Cell growth inhibition (MTS), MDA-MB231; type: cell-based, human; details: Homo sapiens
# Procedure: (§2) Cell Growth Inhibition[34] Cells were plated (500-2000 cells/well depending on the cell line) in 96-well microplates, allowed to attach and grow for 48 h, then treated with vehicle (4% DMSO, a concentration that allowed doubling times of 24 h or less) or test agent (50, 10, 2, 0.4 and 0.08 μM for the new agents; 0.001, 0.005, 0.010, 0.020 and 0.100 μM for paclitaxel and discodermolide) for the given times. One plate consisted of cells from each line used for a time zero cell number determination. The other plates in a given determination contained eight wells of control cells, eight wells of medium and each agent concentration tested in quadruplicate. Cell numbers were obtained spectrophotometrically (absorbance at 490 nm minus that at 630 nm) in a Dynamax plate reader after treatment with 3-(4,5-dimethylthiazol-2-yl)-5-(3-carboxymethoxyphenyl)-2-(4-sulfophenyl)-2H-tetrazolium (MTS) using phenazine methanesulfonate as the electron acceptor. After initial screening with the above 5-fold dilutions, fifty percent growth inhibitory concentration (GI50) values were determined for each agent by repeating the screen using 2-fold dilutions (five concentrations) centered on the initial estimated GI50 concentration, again in quadruplicate.
# [3] = system: 2008 (ovarian); assay: Cell growth inhibition (MTS), 2008; type: cell-based, human; details: Homo sapiens
# Procedure: as §2
# [4] = system: PC3 (prostate); assay: Cell growth inhibition (MTS), PC3; type: cell-based; details: Homo sapiens, read-out: GI50 PC3 (prostate)
# Procedure: as §2
# [5] = system: paclitaxel binding site on tubulin; assay: Paclitaxel binding site inhibition assay ([3H]paclitaxel displacement from microtubules); set-up: species or system bovine; details: 4 μM test agent, 2 μM [3H]paclitaxel, microtubules from 2 μM tubulin and 20 μM dideoxyGTP
# Procedure: as §1
# Paclitaxel binding site inhibition assay. A stock solution of [^3H]paclitaxel (26.8 μM, 16.2 Ci/mmol), obtained from the NCI, was prepared in 37% (v/v) DMSO. The test agents were prepared in 25% (v/v) DMSO-0.75 M monosodium glutamate (prepared from a 2M stock solution adjusted to pH 6.6 with HCl). The radiolabeled paclitaxel and test agents, as indicated in terms of final concentrations, were mixed in equal volumes and warmed to 37° C. A reaction mixture (50 μL) containing 0.75 M monosodium glutamate, 4.0 μM tubulin, and 40 μM ddGTP (a non-hydrolyzable analog of GTP) was prepared and incubated at 37° C. for 30 min to preform microtubules. An equivalent volume of drug mixture with [^3H]paclitaxel was added to preformed polymer and incubated for 30 min at 37° C. Bound [^3H]paclitaxel was separated from free drug by centrifugation of the reaction mixtures at 14000 rpm for 20 min at room temperature. Non-specific binding was determined by addition of a 12-fold excess of docetaxel. Radioactive counts from the supernatant (50 μL) were determined by scintillation spectrometry. Bound [^3H]paclitaxel was calculated from the following: total paclitaxel added to each reaction mixture minus the paclitaxel present in the supernatant (free drug). The % bound values were normalized to the control values with no inhibitor added.
"GI50 ([2]; MDA-MB-231, 72 h continuous exposure, mean ± SD, N = 4, read-out: GI50 MDA-MB231 (breast)) [nM]","GI50 ([4]; 72 h continuous exposure, mean ± SD, N = 4) [nM]",SMILES,"microtubule assembly compared with paclitaxel (in words) ([1]; FIG. 6A, equivalent assembly at lower concentrations and temperatures)","properties of the induced polymer: speed of induction, resistance to cold-induced disassembly (in words) ([1]; FIGS. 6A, 6C, 6D, analogs at somewhat lower potencies than discodermolide)",MT stabilizing activity (%) [1] [%],"GI50 ([2]; MDA-MB-231, 72 h, read-out: GI50 MDA-MB231 (breast)) [nM]","GI50 ([2]; MDA-MB-231, 72 h, read-out: GI50 MDA-MB-231 (breast)) [nM]","GI50 ([3]; 72 h, read-out: GI50 2008 (ovarian)) [nM]","GI50 ([3]; 72 h, read-out: GI50 2008 (ovary)) [nM]",GI50 ([4]; 72 h) [nM],Displacement of [3H]paclitaxel (%) [5] [%],"Displacement of [3H]paclitaxel (%) ([5]; N = 6, means ± SD)","GI50 ([3]; 72 h continuous exposure, mean ± SD, N = 4, read-out: GI50 2008 (ovarian)) [nM]"
,,"C=C/C=C\[C@H](C)[C@H](OC(N)=O)[C@@H](C)[C@H](O)[C@@H](C)C/C(C)=C\[C@H](C)[C@@H](O)[C@@H](C)/C=C\[C@@H](O)C[C@@H]1OC(=O)[C@H](C)[C@@H](O)[C@H]1C [discodermolide, (+)-discodermolide]",superior to paclitaxel,more resistant to cold-induced disassembly,>100,16 ± 3,16 ± 3,72 ± 5,72 ± 5,67 ± 4,64 ± 2,64 ± 2,
2.4 ± 1.6,15 ± 2,"CC(=O)O[C@H]1C(=O)[C@@]2(C)[C@H]([C@H](OC(=O)c3ccccc3)[C@]3(O)C[C@H](OC(=O)[C@H](O)[C@@H](NC(=O)c4ccccc4)c4ccccc4)C(C)=C1C3(C)C)[C@]1(OC(C)=O)CO[C@@H]1C[C@@H]2O [paclitaxel, reference compound]",,,100,,,,,,37 ± 1,,9.2 ± 1.6
